Experimental data published in patent US20240199605A1, “SMALL MOLECULAR INHIBITORS OF NF-kB INDUCING KINASE” (Janssen Pharmaceutica NV, priority 2019, published 2024).
Where two headings read alike, the source gives them in different places.

Experiments:
[1] = biological target: recombinant human NF-kappaB-inducing kinase (NIK/MAP3K14) (Homo sapiens (Human), UniProt Q99558); experiment: Inhibition of auto-phosphorylation of recombinant human NIK/MAP3K14 (AlphaScreen); assay type: biochemical; conditions: NIK auto-phosphorylation, 5 μM ATP, 1 nM NIK, 2 h at 25° C.; average of values
Summary of the method: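 GST-tagged NIK (1 nM) auto-phosphorylated with 5 μM ATP for 2 h at 25° C. in 50 mM Tris pH 7.5, 5 mM MgCl2, 1 mM EGTA, 1 mM DTT, 0.1 mM Na3VO4, 0.01% Tween 20 (0.7% DMSO). Detected by AlphaScreen via anti-phospho-IKK Ser176/180 antibody; IC50 from sigmoidal fit of % inhibition versus log concentration.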

[2] = test system: p-IKKα levels in L363 (NIK translocated multiple myeloma) cells; experiment: Effect of compounds on p-IKKα levels in L363 cells (AlphaLISA SureFire Ultra); assay type: cell-based, human; conditions: BAFF stimulated, MG132, 6 h, average of values, read-out: Assay 2 IC50
Summary of the method: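 Inhibition of p-IKKα (Ser176/180) read by AlphaLISA after 6 h, 37 °C compound exposure (11-point 1:3 series, 0.3% DMSO) of L363 cells pre-incubated overnight ± 250 ng/ml BAFF and plated ± BAFF ± 10 μM MG132. Normalised to BAFF/MG132/DMSO and unstimulated controls; IC50 by sigmoidal fitting, duplicates.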

Chain of recombinant human NF-kappaB-inducing kinase (NIK/MAP3K14) (Q99558 whole entry): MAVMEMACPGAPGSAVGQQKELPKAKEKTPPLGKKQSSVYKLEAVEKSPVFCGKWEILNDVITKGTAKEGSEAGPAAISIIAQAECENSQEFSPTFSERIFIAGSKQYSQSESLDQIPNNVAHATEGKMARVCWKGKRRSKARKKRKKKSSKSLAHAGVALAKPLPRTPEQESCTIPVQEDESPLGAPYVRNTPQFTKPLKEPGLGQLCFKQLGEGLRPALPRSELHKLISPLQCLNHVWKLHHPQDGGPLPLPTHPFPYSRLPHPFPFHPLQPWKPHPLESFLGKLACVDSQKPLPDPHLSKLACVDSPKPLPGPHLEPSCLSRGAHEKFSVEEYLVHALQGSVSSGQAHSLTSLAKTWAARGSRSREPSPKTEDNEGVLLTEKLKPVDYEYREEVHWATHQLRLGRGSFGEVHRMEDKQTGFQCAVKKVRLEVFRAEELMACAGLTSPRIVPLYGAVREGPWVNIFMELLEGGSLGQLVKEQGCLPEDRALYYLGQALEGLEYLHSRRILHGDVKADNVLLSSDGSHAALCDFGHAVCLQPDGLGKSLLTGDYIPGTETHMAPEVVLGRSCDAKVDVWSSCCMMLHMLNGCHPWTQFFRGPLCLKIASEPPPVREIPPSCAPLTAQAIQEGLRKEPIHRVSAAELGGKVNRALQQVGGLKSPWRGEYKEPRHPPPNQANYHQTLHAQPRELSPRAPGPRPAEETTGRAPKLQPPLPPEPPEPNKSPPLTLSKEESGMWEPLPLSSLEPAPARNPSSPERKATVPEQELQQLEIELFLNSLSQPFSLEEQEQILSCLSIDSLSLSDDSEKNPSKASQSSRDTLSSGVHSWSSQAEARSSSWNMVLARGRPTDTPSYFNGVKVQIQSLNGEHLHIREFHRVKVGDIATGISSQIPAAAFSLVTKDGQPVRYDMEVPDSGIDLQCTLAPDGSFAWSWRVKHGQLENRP

Row | Structure (SMILES) | IC50 [1] | IC50 [2] | IC50 ([2]; Homo sapiens, L-363, 6 h)
1 | Nc1nccc2cnc(-c3cccc(C#C[C@]4(O)CCc5cccnc54)c3)nc12 [Example 45, (R)-7-[2-[3-(8-Aminopyrido[3,4-d]pyrimidin-2-yl)phenyl]ethynyl]-5,6-dihydrocyclopenta[b]pyridin-7-ol] | ≤ 0.5 nM |  | 17 nM
2 | Cc1nc(N)c2nc(-c3cccc(C#C[C@](C)(O)c4scnc4C)c3)ccc2n1 [Example 162, (S)-4-(3-(4-Amino-2-methylpyrido[3,2-d]pyrimidin-6-yl)phenyl)-2-(4-methylthiazol-5-yl)but-3-yn-2-ol] | > 5000 nM |  | > 5000 nM
3 | C[C@@](O)(C#Cc1cccc(-c2ncc3ncnc(N)c3n2)c1)c1nccs1 [Example 137, (R)-4-(3-(8-Aminopyrimido[5,4-d]pyrimidin-2-yl)phenyl)-2-(thiazol-2-yl)but-3-yn-2-ol] | ≤ 0.5 nM |  | 9.3 nM
4 | Cc1cc2cnc(-c3cccc(C#C[C@]4(O)CCc5cccnc54)c3)nc2c(N)n1 [Example 63, (R)-7-((3-(8-amino-6-methylpyrido[3,4-d]pyrimidin-2-yl)phenyl)ethynyl)-6,7-dihydro-5H-cyclopenta[b]pyridin-7-ol] | 1.4 nM |  | 140 nM
5 | [2H]C([2H])([2H])N1CCC(O)(C#Cc2cccc(-c3ncc4c(C)cnc(N)c4n3)c2)C1=O (stereo in doubt) [Example 87, (R)-3-[2-[3-(8-Amino-5-methyl-pyrido[3,4-d]pyrimidin-2-yl)phenyl]ethynyl]-3-hydroxy-1-(trideuteriomethyl)pyrrolidin-2-one] | ≤ 0.5 nM |  | 6 nM
6 | COc1ccc(C#C[C@]2(O)CCN(C)C2=O)cc1-c1ncc2ncnc(N)c2n1 [Example 177, (R)-3-((3-(8-Aminopyrimido[5,4-d]pyrimidin-2-yl)-4-methoxyphenyl)ethynyl)-3-hydroxy-1-methylpyrrolidin-2-one] | 5.1 nM |  | 66 nM

Second part, the compound after the results:

Row | IC50 [1] | IC50 [2] | IC50 ([2]; Homo sapiens, L-363, 6 h) | Structure (SMILES)
7 | 3340 nM | > 5000 nM |  | CN1CCC(O)(C#Cc2cccc(-c3ncc4ccnc(N5CCC5)c4n3)c2)C1=O (stereo in doubt) [Example 248, (S)-3-((3-(8-(Azetidin-1-yl)pyrido[3,4-d]pyrimidin-2-yl)phenyl)ethynyl)-3-hydroxy-1-methylpyrrolidin-2-one]
8 | ≤ 0.5 nM |  | 4.5 nM | CN1CC[C@@](O)(C#Cc2cccc(-c3cc(C4CC4)c4ncnc(N)c4n3)c2)C1=O [Example 302, (R)-3-((3-(4-Amino-8-cyclopropylpyrido[3,2-d]pyrimidin-6-yl)phenyl)ethynyl)-3-hydroxy-1-methylpyrrolidin-2-one]
9 | ≤ 0.5 nM |  | 12 nM | CN1CC[C@@](O)(C#Cc2cccc(-c3ncc4c(C(F)(F)F)cnc(N)c4n3)c2)C1=O [Example 99, (R)-3-[2-[3-[8-Amino-5-(trifluoromethyl)pyrido[3,4-d]pyrimidin-2-yl]phenyl]ethynyl]-3-hydroxy-1-methyl-pyrrolidin-2-one]
10 | 1.9 nM |  | 28 nM | Cc1nc(N)c2nc(-c3cccc(C#C[C@]4(O)C[C@@H](C)N(C)C4=O)c3)ccc2n1 [Example 265, (3R,5R)-3-((3-(4-Amino-2-methylpyrido[3,2-d]pyrimidin-6-yl)phenyl)ethynyl)-3-hydroxy-1,5-dimethylpyrrolidin-2-one]
11 | 240 nM |  | > 5000 nM | CN1CC[C@@](O)(C#Cc2cccc(-c3ccc4nccc(N)c4n3)c2)C1=O [Example 219, (R)-3-((3-(8-Amino-1,5-naphthyridin-2-yl)phenyl)ethynyl)-3-hydroxy-1-methylpyrrolidin-2-one]
12 | 44 nM |  | 2460 nM | CN1CC[C@@](O)(C#Cc2cccc(-c3ccc4ncnc(-c5ccccc5)c4n3)c2)C1=O [Example 257, (R)-3-Hydroxy-1-methyl-3-((3-(4-phenylpyrido[3,2-d]pyrimidin-6-yl)phenyl)ethynyl)pyrrolidin-2-one]
13 | 14 nM |  | 670 nM | CN1CC[C@@](O)(C#Cc2cccc(-c3ccc4ncnc(N5CCC5)c4c3)c2)C1=O [Example 243, (R)-3-((3-(4-(Azetidin-1-yl)quinazolin-6-yl)phenyl)ethynyl)-3-hydroxy-1-methylpyrrolidin-2-one]
